These results are taken from patent US20180051284A1, “INHIBITORS OF MIR-17-92 CLUSTER FOR ANTI-TUMOR ACTIVITY IN MULTIPLE MYELOMA AND OTHER MALIGNANCIES” (priority 2014, published 2018).

Series [1] deals with RPMI-8226, KMS-12-BM and NCI-H929 MM cells. Put plainly: AnnexinV/7-AAD staining apoptosis after transfection. It is filed as cell-based, Human. To be noted: transfection with 25 nM; 48 hours. As for the experimental part: 3×10^5 cells were transfected using Neon Transfection System (Invitrogen, Calif.,U.S.), (2 pulses at 1150, 30ms). The transfection efficiency evaluated by flow-cytometric analysis relative to a FAM dye—labeled anti-miR—negative control reached 85% to 90%.
7-aminoactinomycin was used to evaluate cell viability. The staining was performed according to manufacturer's instructions.

The subject of a further series is NCI-H929 MM xenografts. As to the kind of experiment: In vivo anti-MM activity in NCI-H929 xenografted SCID/NOD mice. The source says:
Male CB-17 severe combined immunodeficient (SCID) mice (6- to 8-weeks old; Harlan Laboratories, Inc., Indianapolis) were housed and monitored in our Animal Research Facility. All experimental procedures and protocols had been approved by the Institutional Ethical Committee (Magna Graecia University) and conducted according to protocols approved by the National Directorate of Veterinary Services (Italy). In accordance with institutional guidelines, mice were sacrificed when tumors reached 2 cm in diameter or in the event of paralysis or major compromise, to prevent unnecessary suffering. Animal experimental procedures have been performed as in previous reports (Di Martino et al, CCR 2012; Di Martino el al. Oncotarget 2013, Di Martino et al PlosOne 2014). Briefly, mice were subcutaneously inoculated with 5×10^6 NCI-H929 cells and treatments started when palpable tumors became detectable, approximately 3 weeks following injection of MM cells. Treatments were performed intraperitoneally with different schedules in order to reach the Maximun Tolerated Dose (MTD) and a dose-response curve. Mice were also inoculated with 5×10^6 luciferase gene-marked U266, AMO-1, AMO-1/abzb, treatments were performed intraperitoneally (i.p.), and tumor volume were measured by IVIS Lumina II.
The tumor sizes were assessed by Caliper measurement. […]

Series [2] deals with Capan1, MCF7, MDA231, LXF-289, A-549, NCI-H82, 5637, BCMW.1 and MPM-209 cells. Put plainly: CCK-8 proliferation of non-myeloma cancer cell lines after gymnotic exposure. To be noted: 6 days gymnotic exposure, 0-2,5-5-10 μM. The class given is cell-based, Human. The protocol: Cells were seeded at low plating density in order to reach confluence on the final day of the experiments (day 6). Cell number at plating ranged from 0.5 to 2.5×10^3 in 96-well plates, from 2.5 to 10×10^3 in 12-well plates and from 1 to 3×10^4 in 6-well plates.
Cells were seeded in 100 μL (suspension cell lines) or 50 μL (adherent cell lines) of culture medium at a density ranging from 0,5 to 2,5×10^3 cells per well. Survival was evaluated by both Cell Counting Kit-8 colorimetric assay (CCK-8, Dojindo Molecular Technologies, Japan) and CellTiter-Glo Luminescent Cell Viability Assay (Promega Madison, Wis., USA). Assays were performed according to the manufacturer's instructions. The optical density (OD) was evaluated at wave length of 450 nm. Both OD and luminescence were recorded with the GloMax-multi detection system (Promega, Madison, Wis., USA).
Specifically, we gymnotically exposed for 6 days to 0-2,5-5-10 μM of gapmer_06, the following cell lines: Capan1 pancreatic cancer cells, MCF7 and MDA231 breast cancer cells, LXF-289, A-549 and NCI-H82 lung cancer cells, 5637 bladder cancer cells, BCMW.1 Waldenstrom Macroglobulinemia cells and MPM-209 mesothelioma cells.

l = locked nucleic acid (LNA); d = 2'-deoxy (DNA)

Turning to “gapmer_06: LNA/DNA gapmer, SEQ ID 4 (14 mer): +T*+A*+C*T*T*G*C*T*T*G*G*+C*+T*+T; + LNA, * phosphorothioate (antisense TACTTGCTTGGCTT; sugars from the 5' end l3 d8 l3, all phosphorothioate, methylation of C not given here)”, in series [1], the “apoptosis (AnnexinV/7-AAD staining)” value is “increased apoptosis”. Further, in the series with NCI-H929 MM xenografts (intraperitoneal treatment, as compared to saline), the “survival (Kaplan-Meier)” value is “significant prolongation of survival”. Also, the “tumor growth (caliper tumor volume)” value in the series with NCI-H929 MM xenografts (intraperitoneally, 75-50-25 μg once weekly or 25-12.5 μg twice weekly, vs saline) is reported as “significant (P<0.05) inhibition of tumor growth in a dose dependent-manner”. Besides, the “proliferation (CCK-8 cell growth analysis)” value in series [2] is recorded as “impair proliferation of all cell lines”.
